From patent US12018009B2, “ALDH-2 inhibitor compounds and methods of use” (Amygdala Neurosciences, Inc., priority 2022, dated 2024)

Legend:
[1] = O'Malley et al. 2021; cited from earlier work
MAO-A = biological target: T1, MAO-A (Homo sapiens, UniProt P21397); experiment: MAO-A inhibition assay (luminogenic substrate); format: biochemical; conditions: 20 min pre-incubation; 10 μM = highest concentration tested; read-out: Enzymatic Assays IC50 MAO-A
T1 sequence (P21397 1-527): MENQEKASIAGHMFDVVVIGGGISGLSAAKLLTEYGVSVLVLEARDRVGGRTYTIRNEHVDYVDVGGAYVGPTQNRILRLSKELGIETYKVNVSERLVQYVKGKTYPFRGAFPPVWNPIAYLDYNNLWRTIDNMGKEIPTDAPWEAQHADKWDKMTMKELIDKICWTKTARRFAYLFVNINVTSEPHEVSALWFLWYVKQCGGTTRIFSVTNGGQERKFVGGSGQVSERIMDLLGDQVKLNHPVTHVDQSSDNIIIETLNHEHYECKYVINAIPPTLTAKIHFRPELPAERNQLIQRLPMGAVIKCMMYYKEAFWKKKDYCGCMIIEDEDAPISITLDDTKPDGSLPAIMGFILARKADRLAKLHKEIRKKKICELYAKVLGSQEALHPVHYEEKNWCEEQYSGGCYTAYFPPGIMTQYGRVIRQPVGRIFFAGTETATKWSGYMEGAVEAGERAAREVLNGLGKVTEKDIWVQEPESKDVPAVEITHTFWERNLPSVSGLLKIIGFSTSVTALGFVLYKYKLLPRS
Protocol: (§1) D. MAO-A and MAO-B inhibition assays: MAO assays included luminogenic MAO substrate, reaction buffers, Luciferin Detection, and a reconstitution buffer with esterase. The MAO reaction mixture used in the assay included microsome contained MAO-A (2 μg) or MAO-B (10 μg), 160 μM substrate for MAO-A or 16 μM substrate for MAO-B, MAO-A buffer (100 mM Hepes buffer, pH 7.5, 5% glycerol) or MAO-B buffer (100 mM Hepes, pH 7.5, 5% glycerol, 10% dimethyl sulfoxide) in a final volume of 30 μL. After 20 minutes of pre-incubation of the MAO-A or MAO-B enzyme with the test ALDH-2 inhibitor compound, the reaction was initiated by adding enzyme substrate and the […] reaction was allowed to proceed for 60 minutes. Reconstituted Luciferin Detection Reagent (30 μL) was then added is added to simultaneously stop the MAO reaction and convert the methyl ester derivative to luciferin and produce light. The amount of light produced is directly proportional to the activity of MAO. The mixtures were further incubated for 20 minutes and activity of the enzyme was determined using Perkin-Elmer Envision Reader.

MAO-B = biological target: T2, MAO-B (Homo sapiens, UniProt P27338); experiment: MAO-B inhibition assay (luminogenic substrate); format: biochemical; conditions: 20 min pre-incubation; 10 μM = highest concentration tested; read-out: Enzymatic Assays IC50 MAO-B
T2 sequence (P27338 1-520): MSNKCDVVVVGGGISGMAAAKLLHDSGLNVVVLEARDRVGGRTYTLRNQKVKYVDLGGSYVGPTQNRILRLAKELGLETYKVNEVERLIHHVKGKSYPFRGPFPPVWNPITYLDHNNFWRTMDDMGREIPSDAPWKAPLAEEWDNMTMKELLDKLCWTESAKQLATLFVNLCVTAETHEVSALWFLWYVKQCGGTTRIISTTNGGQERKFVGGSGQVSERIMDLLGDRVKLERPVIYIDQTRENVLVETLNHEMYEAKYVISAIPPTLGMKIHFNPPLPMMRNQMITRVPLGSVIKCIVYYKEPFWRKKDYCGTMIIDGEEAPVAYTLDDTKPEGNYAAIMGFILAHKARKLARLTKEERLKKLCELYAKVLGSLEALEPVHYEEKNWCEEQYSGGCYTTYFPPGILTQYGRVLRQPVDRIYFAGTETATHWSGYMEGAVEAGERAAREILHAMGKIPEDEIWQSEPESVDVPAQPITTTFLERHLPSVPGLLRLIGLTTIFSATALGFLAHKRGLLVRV
Protocol: as §1

recombinant human ALDH-2 = biological target: T3, recombinant human ALDH-2 (Homo sapiens, UniProt P05091); experiment: ALDH-2 inhibition assay; format: biochemical; conditions: 60 min pre-incubation; 10 μM = highest concentration tested; read-out: Enzymatic Assays IC50 ALDH2
T3 sequence (P05091 18-517): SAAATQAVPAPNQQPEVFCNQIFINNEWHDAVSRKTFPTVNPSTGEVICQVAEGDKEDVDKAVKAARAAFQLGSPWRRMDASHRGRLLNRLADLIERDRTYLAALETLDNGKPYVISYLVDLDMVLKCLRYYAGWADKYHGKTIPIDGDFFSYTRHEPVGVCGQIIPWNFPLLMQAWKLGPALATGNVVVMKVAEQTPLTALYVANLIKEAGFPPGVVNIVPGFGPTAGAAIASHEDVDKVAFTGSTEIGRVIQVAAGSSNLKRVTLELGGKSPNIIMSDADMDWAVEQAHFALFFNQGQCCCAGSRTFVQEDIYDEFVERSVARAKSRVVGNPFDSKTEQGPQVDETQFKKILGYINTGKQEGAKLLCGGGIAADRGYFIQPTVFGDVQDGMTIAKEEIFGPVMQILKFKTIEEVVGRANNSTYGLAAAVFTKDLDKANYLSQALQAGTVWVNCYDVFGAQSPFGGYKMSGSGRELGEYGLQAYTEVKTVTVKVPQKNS
Protocol: A. ALDH-2 inhibition assay: The ALDH-2 reaction mixture used in the assay contained 125 μM formaldehyde, 75 μM NAD+, 20 mM NaCl, 10 mM MgCl2, and 20 nM recombinant human ALDH-2 in 50 mM Hepes buffer, pH 7.5 in a final volume of 10 μL using 384-well Corning 3820 plates. After 60 min of pre-incubation of the test ALDH-2 inhibitor compound with ALDH-2, the reaction was started by adding NAD+ and formaldehyde and the assay reaction mixture was allowed to proceed for 60 minutes. Activity of the ALDH-2 enzyme was determined by monitoring NADH formation using Perkin-Elmer Envision Reader with excitation and emission wavelengths set at 340 and 460 nm, respectively.

recombinant human ALDH-1 = biological target: T4, recombinant human ALDH-1 (Homo sapiens, UniProt P00352); experiment: ALDH-1 inhibition assay; format: biochemical; conditions: 60 min pre-incubation; 10 μM = highest concentration tested; read-out: Enzymatic Assays IC50 ALDH-1
T4 sequence (P00352 1-501): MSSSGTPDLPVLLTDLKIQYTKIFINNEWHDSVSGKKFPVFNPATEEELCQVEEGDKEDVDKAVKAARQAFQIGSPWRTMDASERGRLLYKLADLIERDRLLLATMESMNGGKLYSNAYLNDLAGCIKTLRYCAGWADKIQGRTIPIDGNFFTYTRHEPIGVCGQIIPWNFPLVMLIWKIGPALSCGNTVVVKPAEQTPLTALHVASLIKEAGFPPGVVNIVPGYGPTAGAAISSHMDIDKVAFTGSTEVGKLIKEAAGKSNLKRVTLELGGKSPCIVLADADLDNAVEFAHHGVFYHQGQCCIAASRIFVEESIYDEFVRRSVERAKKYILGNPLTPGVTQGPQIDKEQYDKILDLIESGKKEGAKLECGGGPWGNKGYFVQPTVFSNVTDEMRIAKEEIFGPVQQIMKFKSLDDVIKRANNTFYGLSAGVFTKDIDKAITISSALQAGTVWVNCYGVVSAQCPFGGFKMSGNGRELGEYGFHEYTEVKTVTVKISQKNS
Protocol: B. ALDH-1 inhibition assay: The ALDH-1 reaction mixture used in the assay contained 100 μM formaldehyde, 2.5 mM NAD+, 20 mM NaCl, 10 mM MgCl2, 1 mM dithiothreitol (DTT; reducing agent), and 50 nM recombinant human ALDH-1 in 50 mM Hepes buffer, pH 7.5 in a final volume of 10 μL using 384-well Corning 3820 plates. After 60 min of pre-incubation of the test ALDH-2 inhibitor compound with ALDH-1, the reaction was started by adding NAD+ and formaldehyde and the assay reaction mixture was allowed to proceed for 60 minutes. Activity of the ALDH-1 enzyme was determined by monitoring NADH formation using Perkin-Elmer Envision Reader with excitation and emission wavelengths set at 340 and 460 nm, respectively.

| Structure (SMILES) | hepatotoxicity in humans [1] | IC50 (MAO-A) | IC50 (MAO-B) | IC50 (recombinant human ALDH-2) | IC50 (recombinant human ALDH-1) |
| --- | --- | --- | --- | --- | --- |
| O=C(NCc1ccc(-c2cc[nH]c(=O)c2)cc1)c1c(Cl)cccc1Cl [2,6-dichloro-N-[4-(2-oxo-1,2-dihydro-pyridin-4-yl)-benzyl]-benzamide] | high levels of hepatotoxicity | – | – | – | – |
| Cc1cccc(Cl)c1C(=O)NCc1cnc(N2CCNC(=O)C2)nc1 [(1a), 2-Chloro-6-methyl-N-((2-(3-oxopiperazin-1-yl)pyrimidin-5-yl)methyl)benzamide] | – | > 10 µM | > 10 µM | 0.089 µM | > 10 µM |
| O=C1CN(c2ncc(CNC(=O)c3ccccc3Cl)cn2)CCN1 [(1b), 2-Chloro-N-((2-(3-oxopiperazin-1-yl)pyrimidin-5-yl)methyl)benzamide] | – | > 10 µM | > 10 µM | 0.264 µM | > 10 µM |
| Cc1nccc(Cl)c1C(=O)NCc1cnc(N2CCNC(=O)C2)nc1 [(1c), 4-Chloro-2-methyl-N-((2-(3-oxopiperazin-1-yl)pyrimidin-5-yl)methyl)nicotinamide] | – | > 10 µM | > 10 µM | 0.088 µM | > 10 µM |
